Experiments:
AeKir1 = target: T1, AeKir1 (Aedes aegypti, UniProt L0EQS9); assay: Two-electrode voltage clamp in Xenopus oocytes expressing AeKir1 or AeKir2B; format: cell-based; details: 50 μM, inward K+ currents at -140 mV
T1 sequence (L0EQS9 1-486): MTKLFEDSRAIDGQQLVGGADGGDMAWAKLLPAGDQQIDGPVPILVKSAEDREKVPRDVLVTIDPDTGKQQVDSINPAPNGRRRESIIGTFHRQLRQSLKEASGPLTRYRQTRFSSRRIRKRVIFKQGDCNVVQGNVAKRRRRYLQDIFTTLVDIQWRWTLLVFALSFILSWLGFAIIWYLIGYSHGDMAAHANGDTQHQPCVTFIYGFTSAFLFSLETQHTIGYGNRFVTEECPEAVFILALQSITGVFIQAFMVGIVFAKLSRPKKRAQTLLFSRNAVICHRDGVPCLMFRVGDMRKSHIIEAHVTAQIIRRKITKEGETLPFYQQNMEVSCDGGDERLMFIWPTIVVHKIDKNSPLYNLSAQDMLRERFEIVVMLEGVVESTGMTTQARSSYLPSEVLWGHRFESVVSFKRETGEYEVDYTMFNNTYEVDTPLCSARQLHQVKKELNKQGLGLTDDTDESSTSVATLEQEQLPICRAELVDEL
Experimental: Heterologous expression of AeKir1 or AeKir2B was performed in Xenopus laevis oocytes as described previously. Current-voltage (I-V) relationships of oocytes were acquired by clamping the membrane potential (Vm) near the spontaneous, resting Vm and then initiating a voltage-stepping protocol (via the Clampex module of pCLAMP) consisting of 20 mV steps from −140 mV to +40 mV (100 ms each). Additional details are provided in the Supplemental Methods.
Patch clamp electrophysiology
Patch electrodes were pulled from silanized 1.5 mm outer diameter borosilicate microhematocrit tubes using a P-1000 Flaming/Brown micropipette puller (Sutter Instrument, Novato CA, USA). Electrode resistance ranged from 2 -4 MΩ. Whole-cell currents were recorded under voltage-clamp conditions using an Axopatch 200B amplifier (Molecular D evices, Sunn yvale, CA). […]
The voltage clamp was then turned off during solution changes, and when the oocyte reach ed a n ew stead y-state Vm (~90 s) the I-V relationship of the ooc yt e was acquired again. All Vm and Im v alues were digitally recorded (Digidata 1440A Data Acquisition System, Molecular Devices) and the r esulting I-V plots were generated with the Clampfit module of pC LAMP. […]
[…]

Ae. aegypti = assay: In vivo diuresis assay in adult female Ae. aegypti (LVP); design: species or system Aedes aegypti; details: topical 1.7 μg/mg mosquito 2 h before injection of 900 nL K+-PBS, 1 h
Experimental: The excretory capacity of adult female Ae. aegypti (LVP strain) was measured as described previously. […] The K^+-PBS consisted of the following (in mM): 92.2 NaCl, 47.5 KCl, 10 Na2HPO4 and 2 KH2PO4 (pH 7.5). Each treatment group of 5 mosquitoes was transferred into a separate graduated, packed-cell volume tube (MidSci, St. Louis, MO) and held for 1 h at 28 °C. The volume excreted by the mosquitoes was measured visually via the graduated column at the bottom of the tube. At least 8 replicates (5 mosquitoes per replicate) were performed for each treatment. All mosquitoes were confirmed to be alive at the end of 1 h.

Kir1.1 = target: T2, Kir1.1 (Rattus norvegicus, UniProt P35560); assay: Tl+ flux assay, mammalian Kir1.1; format: cell-based; details: read-out: inhibition of Kir1.1
T2 sequence (P35560 1-391): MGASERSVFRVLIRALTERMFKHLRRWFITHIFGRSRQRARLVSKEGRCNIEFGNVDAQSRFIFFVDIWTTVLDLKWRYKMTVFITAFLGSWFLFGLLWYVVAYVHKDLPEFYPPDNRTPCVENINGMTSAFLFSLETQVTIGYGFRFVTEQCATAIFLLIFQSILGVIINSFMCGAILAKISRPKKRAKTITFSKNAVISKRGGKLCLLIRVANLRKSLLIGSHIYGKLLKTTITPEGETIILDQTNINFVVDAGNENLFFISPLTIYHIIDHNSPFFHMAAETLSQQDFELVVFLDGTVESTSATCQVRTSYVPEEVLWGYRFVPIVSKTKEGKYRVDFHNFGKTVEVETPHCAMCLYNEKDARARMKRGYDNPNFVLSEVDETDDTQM

Question: `O=C(Cn1nc(C(F)(F)F)c2c1CCCC2)N1CCCc2ccccc21` [VU041, 1-(3,4-dihydroquinolin-1(2H)-yl)-2-(3-(trifluoromethyl)-4,5,6,7-tetrahydro-1H-indazol-1-yl)ethan-1-one] was tested. Which “preference of inhibition AeKir1 vs AeKir2B” value (AeKir1) did it give?
Answer: preferentially inhibited AeKir1 over AeKir2B

Question: What about the “diuretic capacity (urine excreted) compared to controls, reduction” value (Ae. aegypti) of the same compound?
Answer: ~ 51%

Question: And the inhibition at 30 µM (Kir1.1)?
Answer: < 10%
